Paper PMC11094307, “Marine-derived EGFR inhibitors: novel compounds targeting breast cancer growth and drug resistance” (Frontiers in Pharmacology, 2024)
Where two headings read alike, the source gives them in different places.

How the values were obtained:
[1] = molecular target: T1, EGFR intracellular kinase domain (Homo sapiens, UniProt P00533); assay: SPR binding (Biacore 8K); set-up: the intracellular tyrosine kinase (TK) domain of EGFR, tagged with GST; purchased Sinobiological, China; settings: without ATP
Text: (§1) The extracellular ligand-binding domain of EGFR, tagged with His, and the intracellular tyrosine kinase (TK) domain of EGFR, tagged with GST, were acquired from Sinobiological, China. Kinase assay systems for both wild-type EGFR and its mutants—T790M, L858R, and the dual L858R/T790M—were procured from Promega Corporation, USA. Cell lines including MCF-7, A549, A431, H1299, HL-60, and MCF-10A were obtained from the China Infrastructure Cell Line Resources.
(§2) The binding affinities of compounds towards EGFR extracellular ligand binding domain and EGFR intracellular kinase domain were assayed using the SPR-based Biacore 8K instrument (Cytiva). Considering the purchased EGFR was fused with GST tag, GST alone was also immobilized on the chip to do the binding measurement. All the proteins were respectively immobilized on a CM5 sensor chip by using standard amine-coupling at 25°C with running buffer HEPES-P (20 mM HEPES buffer, […], 0.05% surfactant P20, pH 7.4). A reference channel was only activated and blocked to eliminate compound unspecific binding to the surface of the chip. The immobilization level of EGFR extracellular ligand binding domain, EGFR intracellular kinase domain and GST were all about 10,000 RU. […] Extra wash with 50% DMSO was added to remove the last remaining sample in the pipeline.

[2] = molecular target: T2, EGFR extracellular ligand binding domain (Homo sapiens, UniProt P00533); assay: SPR binding (Biacore 8K)
T2 construct: His; purchased Sinobiological, China
Text: as §1, §2

WT EGFR = molecular target: T3, WT EGFR (Homo sapiens, UniProt P00533); assay: Kinase inhibition assay (ADP-Glo, Promega); format: biochemical; settings: in vitro kinase assay
T3 construct: purchased Promega Corporation, USA
Experimental: as §1, with “Kinase assay systems for both wild-type EGFR and its mutants—T790M, L858R, and the dual L858R/T790M—were procured from Promega Corporation, USA.” left out
(§3) The experiments were conducted in accordance with the manufacturer’s guidelines (Promega). The procedure began with a kinase reaction, where 5 μL of 1× kinase buffer was utilized, and the mixture was incubated at room temperature for 60 min. This step was followed by the addition of 5 μL of ADP-Glo™ reagent to terminate the kinase reaction and to deplete any remaining ATP, with a subsequent incubation period of 40 min at room temperature. Next, 10 μL of kinase detection reagent was added to convert ADP back into ATP, and luciferase along with luciferin was introduced to facilitate ATP detection. This mixture was then incubated at room temperature for an additional 30 min. Detection was carried out using a BioTek Synergy4 instrument, and data analysis, including curve fitting and presentation, was performed using GraphPad Prism version 5.0.
(§4) All experiments were repeated at least three times, and the data are presented as mean ± standard deviation (SD). The statistical analyses were performed using Origin. EC50 or IC50 values were obtained by fitting the data to a four-parameter Hill model of the graph of log dose against percentage cell viability or inhibition from at least three sets of experiments. Difference between two groups were analyzed by Student’s t test (two-sided) and significance was set at p < 0.05. The specific details about statistical methods are introduced in respective figure legends.

EGFR T790M = molecular target: T4, EGFR T790M (Homo sapiens, UniProt P00533, T790M); assay: Kinase inhibition assay (ADP-Glo, Promega); format: biochemical
T4 construct: purchased Promega Corporation, USA
Experimental: as §1, with “Kinase assay systems for both wild-type EGFR and its mutants—T790M, L858R, and the dual L858R/T790M—were procured from Promega Corporation, USA.” left out
as §3, §4

[3] = molecular target: T1, EGFR intracellular kinase domain; assay: SPR ATP competition experiments (1 mM ATP); settings: in the presence of ATP, Figure S6
MCF-7 cells = assay: MTT assay, MCF-7 growth inhibition; format: cell-based, human; settings: Homo sapiens, read-out: EC50, MCF-7 cell viability
Experimental: Both mediums were enriched with 10% fetal bovine serum and 1% penicillin/streptomycin.
Cells in the exponential growth phase were seeded into 96-well plates and allowed to adhere overnight. […] After 24 h, 20 µL of Methyl-thiazolyldiphenyl-tetrazolium bromide (MTT, 5 mg/mL, Thermo Fisher Scientific) was added to each well and incubated for a minimum of 4 h. Following the incubation, the medium containing the compounds and MTT was removed from each well, and 200 µL of dimethyl sulfoxide (DMSO) was added.
as §4

[4] = molecular target: T2, EGFR extracellular ligand binding domain; assay: SPR EGF competition experiments; settings: for kon: read-out: ka
Text: The protocol fixed the pre-flank contact time, analyte contact time, and post-flank contact time at 60 s, 60 s, and 120 s, respectively.

EGFR L858R = molecular target: T5, EGFR L858R (Homo sapiens, UniProt P00533, L858R); assay: Kinase inhibition assay (ADP-Glo, Promega); format: biochemical
T5 construct: purchased Promega Corporation, USA
Experimental: as §1, with “Kinase assay systems for both wild-type EGFR and its mutants—T790M, L858R, and the dual L858R/T790M—were procured from Promega Corporation, USA.” left out
as §3, §4

EGFR L858R/T790M = molecular target: T6, EGFR L858R/T790M (Homo sapiens, UniProt P00533, L858R/T790M); assay: Kinase inhibition assay (ADP-Glo, Promega); format: biochemical
T6 construct: purchased Promega Corporation, USA
Experimental: as §1, with “Kinase assay systems for both wild-type EGFR and its mutants—T790M, L858R, and the dual L858R/T790M—were procured from Promega Corporation, USA.” left out
as §3, §4

T3 sequence (P00533 25-1210): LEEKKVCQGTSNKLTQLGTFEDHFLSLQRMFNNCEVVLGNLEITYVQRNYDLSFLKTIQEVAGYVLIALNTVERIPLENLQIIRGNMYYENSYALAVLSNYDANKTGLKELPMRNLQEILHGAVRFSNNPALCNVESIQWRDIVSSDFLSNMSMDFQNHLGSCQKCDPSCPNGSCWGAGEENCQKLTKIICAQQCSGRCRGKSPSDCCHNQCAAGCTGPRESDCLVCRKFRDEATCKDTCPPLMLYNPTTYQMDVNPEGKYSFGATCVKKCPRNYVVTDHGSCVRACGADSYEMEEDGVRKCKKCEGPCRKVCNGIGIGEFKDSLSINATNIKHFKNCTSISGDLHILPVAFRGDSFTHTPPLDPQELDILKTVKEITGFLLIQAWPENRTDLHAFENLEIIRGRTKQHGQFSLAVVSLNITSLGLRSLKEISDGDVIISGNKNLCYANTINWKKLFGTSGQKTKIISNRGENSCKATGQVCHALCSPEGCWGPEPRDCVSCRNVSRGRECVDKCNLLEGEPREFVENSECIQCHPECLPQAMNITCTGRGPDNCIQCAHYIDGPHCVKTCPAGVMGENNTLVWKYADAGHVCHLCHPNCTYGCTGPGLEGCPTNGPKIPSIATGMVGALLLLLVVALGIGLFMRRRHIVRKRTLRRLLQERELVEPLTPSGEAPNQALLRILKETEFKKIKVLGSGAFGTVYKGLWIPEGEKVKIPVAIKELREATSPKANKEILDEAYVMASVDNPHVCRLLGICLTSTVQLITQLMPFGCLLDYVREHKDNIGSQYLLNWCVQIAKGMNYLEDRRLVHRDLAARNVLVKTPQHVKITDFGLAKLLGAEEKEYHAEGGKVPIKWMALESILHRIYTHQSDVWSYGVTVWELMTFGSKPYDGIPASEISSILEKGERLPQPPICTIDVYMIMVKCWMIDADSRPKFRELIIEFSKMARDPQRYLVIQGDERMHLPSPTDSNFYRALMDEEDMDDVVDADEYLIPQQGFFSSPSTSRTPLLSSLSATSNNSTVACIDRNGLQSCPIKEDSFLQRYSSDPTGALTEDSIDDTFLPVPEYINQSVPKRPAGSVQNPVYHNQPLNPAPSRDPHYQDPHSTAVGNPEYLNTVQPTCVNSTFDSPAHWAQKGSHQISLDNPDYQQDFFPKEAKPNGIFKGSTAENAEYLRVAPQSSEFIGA
T2 sequence (P00533 25-645 limits assumed): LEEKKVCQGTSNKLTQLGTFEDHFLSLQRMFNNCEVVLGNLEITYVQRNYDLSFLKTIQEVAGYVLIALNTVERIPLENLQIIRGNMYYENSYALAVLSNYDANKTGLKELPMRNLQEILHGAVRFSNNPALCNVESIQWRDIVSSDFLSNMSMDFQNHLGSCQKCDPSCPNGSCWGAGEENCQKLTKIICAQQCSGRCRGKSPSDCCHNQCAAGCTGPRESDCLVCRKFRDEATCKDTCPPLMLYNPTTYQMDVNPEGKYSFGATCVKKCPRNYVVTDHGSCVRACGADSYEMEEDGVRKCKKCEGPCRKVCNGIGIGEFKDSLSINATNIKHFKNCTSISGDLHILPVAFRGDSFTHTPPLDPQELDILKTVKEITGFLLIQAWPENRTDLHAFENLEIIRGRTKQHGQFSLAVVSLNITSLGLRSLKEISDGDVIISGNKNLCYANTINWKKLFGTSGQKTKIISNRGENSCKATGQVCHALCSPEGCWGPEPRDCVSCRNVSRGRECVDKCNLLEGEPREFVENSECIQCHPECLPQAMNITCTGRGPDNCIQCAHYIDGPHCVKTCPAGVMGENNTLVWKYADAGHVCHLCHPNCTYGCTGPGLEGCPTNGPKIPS
T1 sequence (P00533 712-979 limits assumed): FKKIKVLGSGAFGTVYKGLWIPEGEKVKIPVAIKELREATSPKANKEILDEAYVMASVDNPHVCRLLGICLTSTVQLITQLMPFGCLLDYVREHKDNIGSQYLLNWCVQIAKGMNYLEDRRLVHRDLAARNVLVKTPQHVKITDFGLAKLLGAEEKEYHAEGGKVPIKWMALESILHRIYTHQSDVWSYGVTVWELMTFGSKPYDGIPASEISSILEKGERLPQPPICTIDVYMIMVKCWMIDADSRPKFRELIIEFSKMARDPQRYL
T4 sequence (P00533 25-1210 T790M): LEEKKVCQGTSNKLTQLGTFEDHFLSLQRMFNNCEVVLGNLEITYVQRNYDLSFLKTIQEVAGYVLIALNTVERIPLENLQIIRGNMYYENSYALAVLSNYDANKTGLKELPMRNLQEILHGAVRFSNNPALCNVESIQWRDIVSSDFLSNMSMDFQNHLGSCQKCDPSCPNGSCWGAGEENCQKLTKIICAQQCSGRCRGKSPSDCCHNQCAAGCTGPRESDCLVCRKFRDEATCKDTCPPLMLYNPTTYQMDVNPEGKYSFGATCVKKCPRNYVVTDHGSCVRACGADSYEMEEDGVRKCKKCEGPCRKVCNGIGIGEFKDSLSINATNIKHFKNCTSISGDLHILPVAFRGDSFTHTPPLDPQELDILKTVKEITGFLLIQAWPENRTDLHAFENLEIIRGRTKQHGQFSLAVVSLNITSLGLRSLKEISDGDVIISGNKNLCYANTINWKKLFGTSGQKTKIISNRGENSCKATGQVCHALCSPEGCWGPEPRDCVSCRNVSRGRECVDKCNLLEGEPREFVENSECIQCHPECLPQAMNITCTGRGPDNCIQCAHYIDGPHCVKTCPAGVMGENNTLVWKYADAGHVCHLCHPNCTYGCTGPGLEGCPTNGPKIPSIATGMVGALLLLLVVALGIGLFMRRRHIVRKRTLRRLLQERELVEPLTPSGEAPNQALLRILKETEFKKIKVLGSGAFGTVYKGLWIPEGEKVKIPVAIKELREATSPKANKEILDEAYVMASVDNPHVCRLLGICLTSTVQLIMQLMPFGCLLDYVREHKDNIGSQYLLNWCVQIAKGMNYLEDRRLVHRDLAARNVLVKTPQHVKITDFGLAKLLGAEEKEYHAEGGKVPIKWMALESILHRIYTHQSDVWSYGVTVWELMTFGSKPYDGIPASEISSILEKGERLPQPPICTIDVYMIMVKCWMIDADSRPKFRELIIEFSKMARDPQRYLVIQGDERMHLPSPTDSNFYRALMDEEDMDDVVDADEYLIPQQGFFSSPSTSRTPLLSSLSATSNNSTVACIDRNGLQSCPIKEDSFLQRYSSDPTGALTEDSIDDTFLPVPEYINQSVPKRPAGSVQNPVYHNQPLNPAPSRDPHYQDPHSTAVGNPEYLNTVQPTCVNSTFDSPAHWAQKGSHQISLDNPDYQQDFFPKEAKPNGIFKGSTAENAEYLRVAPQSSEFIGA
T6 sequence (P00533 25-1210 T790M/L858R): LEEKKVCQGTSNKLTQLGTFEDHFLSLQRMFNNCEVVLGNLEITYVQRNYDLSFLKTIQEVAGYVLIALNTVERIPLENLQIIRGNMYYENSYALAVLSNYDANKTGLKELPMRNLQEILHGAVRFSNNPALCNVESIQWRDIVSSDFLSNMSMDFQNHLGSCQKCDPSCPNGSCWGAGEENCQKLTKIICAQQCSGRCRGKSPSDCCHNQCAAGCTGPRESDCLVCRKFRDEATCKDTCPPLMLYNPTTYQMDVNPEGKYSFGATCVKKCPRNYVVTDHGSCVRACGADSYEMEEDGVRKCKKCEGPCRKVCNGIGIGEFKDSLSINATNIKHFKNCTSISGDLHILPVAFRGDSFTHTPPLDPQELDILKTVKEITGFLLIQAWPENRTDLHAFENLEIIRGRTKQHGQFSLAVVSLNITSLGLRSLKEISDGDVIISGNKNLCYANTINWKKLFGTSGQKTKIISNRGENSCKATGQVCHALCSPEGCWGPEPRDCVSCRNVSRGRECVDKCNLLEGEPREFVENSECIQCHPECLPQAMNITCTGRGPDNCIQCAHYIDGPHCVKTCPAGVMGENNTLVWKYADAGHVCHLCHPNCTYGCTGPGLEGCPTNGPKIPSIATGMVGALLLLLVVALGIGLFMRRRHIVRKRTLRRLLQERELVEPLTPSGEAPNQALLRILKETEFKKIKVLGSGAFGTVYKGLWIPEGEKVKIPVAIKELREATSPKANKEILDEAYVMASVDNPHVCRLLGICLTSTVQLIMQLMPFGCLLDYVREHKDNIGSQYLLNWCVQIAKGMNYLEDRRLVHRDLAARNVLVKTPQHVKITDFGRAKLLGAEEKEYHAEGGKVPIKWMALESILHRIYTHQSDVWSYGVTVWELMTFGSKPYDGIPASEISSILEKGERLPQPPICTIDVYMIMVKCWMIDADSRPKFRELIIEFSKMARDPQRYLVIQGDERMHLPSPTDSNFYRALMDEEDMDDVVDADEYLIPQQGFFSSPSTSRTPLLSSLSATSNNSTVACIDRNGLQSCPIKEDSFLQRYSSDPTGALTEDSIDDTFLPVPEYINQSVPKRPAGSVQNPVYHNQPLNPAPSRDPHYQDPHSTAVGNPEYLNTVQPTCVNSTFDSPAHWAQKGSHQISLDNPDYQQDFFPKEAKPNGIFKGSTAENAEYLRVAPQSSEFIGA

Compound | Kd [1] [µM] | Kd [2] [µM] | binding to kinase domain of EGFR [3] | IC50 (EGFR L858R) [µM] | IC50 (EGFR L858R/T790M) [µM] | IC50 (WT EGFR; IC50 against WT EGFR) [µM] | IC50 (EGFR T790M) [µM] | EC50 (MCF-7 cells; MCF7, 24 h) [µM] | also measured
CC[C@@H](C)[C@H]1C=C[C@H]2[C@H](OC(=O)/C=C(\C)CC(=O)OC)[C@H](O)C[C@@H](C)[C@@H]2[C@@]1(C)C(=O)CCO [Tandyukisin B] | 7.02 | 30 | hardly bind | – | – | – | – | – | IC50 (WT EGFR; read-out: IC50 against WT EGFR): 0.0147 ± 0.0011 µM; IC50 (EGFR T790M; in vitro kinase assay, read-out: IC50 against EGFR T790M): 0.0373 ± 0.0001 µM; EC50 (MCF-7 cells; MCF7, MTT, 24 h): 9.2 ± 1.2 µM
CC[C@@H](C)[C@H]1C=C[C@H]2[C@H](O)[C@H](OC(=O)/C=C(\C)CC(=O)O)C[C@@H](C)[C@@H]2[C@@]1(C)C(=O)CCO [Trichoharzin] | 6.34 | 7.98 | – | 0.0028 ± 0.0006 | 0.0855 ± 0.0277 | 0.0119 ± 0.0001 | 0.032 ± 0.0005 | 4.8 ± 0.4 | kon ([1]; Figure 4A-B, read-out: ka, EGFR kinase domain): 8040 M⁻¹ s⁻¹; kon ([2]; Figure 4C-D, read-out: ka, EGFR ligand binding domain): 1810 M⁻¹ s⁻¹; folds weaker than binding alone ([4]; EGF 2.5 nM): 3.3 fold; Kd ([4]; EGF 2.5 nM, Figure 4H, read-out: KD): 26.2 µM; kon ([4]; EGF 2.5 nM, Figure 4H): 1030 M⁻¹ s⁻¹; folds weaker than binding alone ([4]; EGF 10 nM): 5.1 fold; Kd ([4]; EGF 10 nM, Figure 4I, read-out: KD): 40.6 µM; kon ([4]; EGF 10 nM, Figure 4I): 552 M⁻¹ s⁻¹; folds weaker than binding alone ([4]; EGF 20 nM): 7.0 fold; Kd ([4]; EGF 20 nM, Figure 4J, read-out: KD): 56.2 µM; kon ([4]; EGF 20 nM, Figure 4J): 374 M⁻¹ s⁻¹; inhibition of EGF-EGFR interaction ([4]; SPR, concentration-dependent, 125-500 μM): significantly inhibiting; Kd ([4]; in the presence of EGF 2.5 nM, read-out: KD for EGFR extracellular ligand binding domain): 26.2 µM; Kd ([4]; in the presence of EGF 10 nM, read-out: KD for EGFR extracellular ligand binding domain): 40.6 µM; Kd ([4]; in the presence of EGF 20 nM, read-out: KD for EGFR extracellular ligand binding domain): 56.2 µM
CC[C@@H](C)[C@H]1C=C[C@H]2[C@H](OC(=O)C/C(C)=C\C(=O)O)[C@H](O)C[C@@H](C)[C@@H]2[C@@]1(C)C(=O)CCO [Tandyukisin C] | 6.56 | 55.1 | hardly bind | 0.003 ± 0.0002 | 0.156 ± 0.004 | 0.0126 ± 0.0001 | 0.0297 ± 0.0001 | 8.7 ± 1 | –
